Test results published in PubChem BioAssay AID330 (DTP/NCI, 2004).
Values joined by “and” are separate entries in the source; they are usually repeats but may differ in a detail not shown here. Equal entries are not always repeated. Toxic doses and inconclusive results are not listed.

Tested on: P388 leukemia ip, CD2F1 mice, survival T/C
Test: NCI In Vivo Anticancer Drug Screen. Data for tumor model P388 Leukemia (intraperitoneal) in CD2F1 (CDF1) mice
Conditions: endpoint: median survival time, higher = longer survival
Procedure, shortened: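 Mice carrying the transplanted tumor received test compound or vehicle. Survival was recorded in each group, and the value is the treated-group measurement divided by that of the vehicle-treated control group.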

[1] = dose: 50.0 mg/kg/injection, schedule: Q01DX009 (ip), vehicle: Klucel (hydroxypropylcellulose) (HPC)
[2] = dose: 100.0 mg/kg/injection, schedule: Q01DX009 (ip), vehicle: Klucel (hydroxypropylcellulose) (HPC)
[3] = dose: 200.0 mg/kg/injection, schedule: Q01DX009 (ip), vehicle: Klucel (hydroxypropylcellulose) (HPC)
[4] = dose: 50.0 mg/kg/injection, schedule: Q01DX009 (ip), vehicle: saline
[5] = dose: 100.0 mg/kg/injection, schedule: Q01DX009 (ip), vehicle: saline
[6] = dose: 60.0 mg/kg/injection, schedule: Q01DX005 (ip), vehicle: saline with Tween-80
[7] = dose: 120.0 mg/kg/injection, schedule: Q01DX005 (ip), vehicle: saline with Tween-80
[8] = dose: 240.0 mg/kg/injection, schedule: Q01DX005 (ip), vehicle: saline with Tween-80
[9] = dose: 60.0 mg/kg/injection, schedule: Q01DX005 (ip), vehicle: Klucel (hydroxypropylcellulose) (HPC)
[10] = dose: 120.0 mg/kg/injection, schedule: Q01DX005 (ip), vehicle: Klucel (hydroxypropylcellulose) (HPC)
[11] = dose: 240.0 mg/kg/injection, schedule: Q01DX005 (ip), vehicle: Klucel (hydroxypropylcellulose) (HPC)
[12] = dose: 50.0 mg/kg/injection, schedule: Q01DX005 (ip), vehicle: saline
[13] = dose: 100.0 mg/kg/injection, schedule: Q01DX005 (ip), vehicle: saline
[14] = dose: 200.0 mg/kg/injection, schedule: Q01DX005 (ip), vehicle: saline
[15] = dose: 50.0 mg/kg/injection, schedule: Q01DX005 (ip), vehicle: saline with Tween-80
[16] = dose: 100.0 mg/kg/injection, schedule: Q01DX005 (ip), vehicle: saline with Tween-80
[17] = dose: 200.0 mg/kg/injection, schedule: Q01DX005 (ip), vehicle: saline with Tween-80

c1ccc2c3c([nH]c2c1)CCCC3
T/C [1]: 102 % of control
T/C [2]: 103 % of control
T/C [3]: 111 % of control

c1ccc(Sc2ncccn2)nc1
T/C [4]: 108 % of control
T/C [5]: 115 % of control

O=C1CS/C(=C/Cc2nc3ccccc3s2)N1
T/C [6]: 108 % of control
T/C [7]: 97 % of control
T/C [8]: 102 % of control

CC1(C)OC(=O)ON(C(c2ccccc2)c2ccccc2)C1=O
T/C [6]: 101 % of control
T/C [7]: 108 % of control

CSCNC(=S)Nc1ccc(Cl)cc1
T/C [1]: 94 % of control

C/C=c1/[nH]c(=O)/c(=C\C=C\c2ccccc2)[nH]c1=O
T/C (dose: 25.0 mg/kg/injection, schedule: Q01DX009 (ip), vehicle: Klucel (hydroxypropylcellulose) (HPC)): 106 % of control and 91 % of control
T/C [1]: 104 % of control and 91 % of control
T/C [2]: 88 % of control and 91 % of control and 95 % of control
T/C [3]: 97 % of control

CC1C=Cc2ccccc2NC1C (stereo not drawn)
T/C [6]: 101 % of control
T/C [7]: 102 % of control
T/C [8]: 97 % of control

COc1cc(NS(=O)(=O)c2ccccc2)c2nc3ccc(Cl)cc3nc2c1
T/C [9]: 96 % of control
T/C [10]: 90 % of control
T/C [11]: 89 % of control

Nc1nnc2nc(C(C(=O)c3ccccc3)c3nc4nnc(N)n4[nH]c3=O)c(=O)[nH]n12
T/C [12]: 102 % of control
T/C [13]: 96 % of control
T/C [14]: 97 % of control

CCOC(=O)c1n[nH]nc1Nc1cncc(Nc2n[nH]nc2C(=O)OCC)n1
T/C [9]: 102 % of control
T/C [10]: 97 % of control
T/C [11]: 97 % of control

O=C(Nc1ccccc1Cl)OCC(CCl)(CCl)CCl
T/C [1]: 100 % of control
T/C [2]: 106 % of control
T/C [3]: 95 % of control

Cc1c(O)c(=O)ccn1CCO
T/C [12]: 102 % of control and 104 % of control
T/C [13]: 100 % of control and 106 % of control
T/C [14]: 117 % of control and 124 % of control

Cc1cc(NCCCCCCNc2cc(C)nc3ccc(N)cc23)c2cc(N)ccc2n1
T/C (dose: 75.0 mg/kg/injection, schedule: Q04DX003 (ip), vehicle: alcohol): 177 % of control
T/C (dose: 150.0 mg/kg/injection, schedule: Q04DX003 (ip), vehicle: alcohol): 186 % of control
T/C (dose: 300.0 mg/kg/injection, schedule: Q04DX003 (ip), vehicle: alcohol): 190 % of control

CC12CCC3C4CCC(=O)C(O)=C4CCC3C1CCC2OC(=O)CCC1CCCC1 (stereo not drawn)
T/C (dose: 50.0 mg/kg/injection, schedule: Q04DX003 (sc), vehicle: Klucel (hydroxypropylcellulose) (HPC)): 99 % of control
T/C (dose: 100.0 mg/kg/injection, schedule: Q04DX003 (sc), vehicle: Klucel (hydroxypropylcellulose) (HPC)): 118 % of control
T/C (dose: 200.0 mg/kg/injection, schedule: Q04DX003 (sc), vehicle: Klucel (hydroxypropylcellulose) (HPC)): 101 % of control

COC(=O)/C=C/CCO
T/C (dose: 50.0 mg/kg/injection, schedule: Q01DX009 (ip), vehicle: saline with Tween-80): 111 % of control
T/C (dose: 100.0 mg/kg/injection, schedule: Q01DX009 (ip), vehicle: saline with Tween-80): 95 % of control
T/C (dose: 200.0 mg/kg/injection, schedule: Q01DX009 (ip), vehicle: saline with Tween-80): 108 % of control

Cc1ncc(CO)c2c1OC(C)(C)OC2
T/C [15]: 100 % of control
T/C [16]: 107 % of control
T/C [17]: 100 % of control

O=C1CSC(=Nc2ccccc2)N1c1ncccn1
T/C [1]: 103 % of control
T/C [2]: 102 % of control
T/C [3]: 102 % of control

COC(=O)c1c(C(N)=O)c(C)n(NC(N)=O)c1C
T/C [15]: 117 % of control
T/C [16]: 107 % of control
T/C [17]: 108 % of control

CCn1c(N)c(C(=S)NC)c(=O)n(CC)c1=O
T/C [4]: 100 % of control
T/C [5]: 96 % of control
